Reference: patent US20240336604A1 (THE UNITED STATES OF AMERICA, AS REPRESENTED BY THE …, priority 2021, published 2024)

Columns and labels:
D3 DAR [1] = biological target: T1, D3 DAR (Homo sapiens, UniProt P35462); experiment: Go BRET activation assay, D3 DAR; assay type: cell-based; conditions: 5 min; EC80 DA (30 nM); read-out: D3 Go BRET Imax
Protocol: Briefly, HEK293T cells transiently expressing either the D2 DAR or D3 DAR and GαoA-Rluc8, untagged-β1, and mVenus-γ2 were harvested with EBSS, plated in 96-well white plates at 20,000 cells/well in DPBS and incubated at RT for 45 min. […] BRET signal was determined by quantifying and calculating the ratio of the light emitted by mVenus (525 nm) over that emitted by RLuc8 (485 nm) using a PHERAstar FSX Microplate Reader (BMG Labtech).

[2] = Mouse plasma and brain pharmacokinetic study; assay type: in vivo; conditions: male CD1 mice, single 40 mg/kg i.p.
Protocol: Mouse Plasma and Brain Tissue Sampling: The pharmacokinetic study was conducted by CRO Pharmaron (Beijing, China). The levels of cmp 17 in mouse plasma and brain tissue samples were assessed as follows. A single IP dose (40 mg/kg) of cmp 17 was administered to male CD1 mice. The formulation consisted of NMP/Solutol/PEG-400/normal saline (v/v/v/v, 10:5:30:55). Plasma and brain samples were collected 0.5 h, 1 h, 2 h, 4 h and 8 h post dose. Brain samples were homogenized at a ratio of 1:3 with PBS (W/V, 1:3). The desired serial concentrations of working solutions were achieved by diluting stock solution of analyte with 50% acetonitrile in water solution. 10 μL of working solutions (0.5, 1, 2, 5, 10, 50, 100, 500, 1000, 10000 ng/mL) were added to 10 μL of the blank CD1 mouse plasma/brain homogenate to achieve calibration standards of 0.5-10000 ng/mL (0.5, 1, 2, 5, 10, 50, 100, 500, 1000, 10000 ng/mL) in a total volume of 20 μL. Five quality control samples at 1 ng/mL, 2 ng/mL, 5 ng/mL, 100 ng/mL and 8000 ng/mL for plasma/brain homogenate were prepared independently of those used for the calibration curves. […] After centrifugation at 4° C., 4700 rpm for 15 min, the supernatant was diluted at a ratio of 1:2 with water, and 10 μL of diluted supernatant was injected into the LC/MS/MS system (SCIEX AB API 4000) for quantitative analysis. […]

D3 DAR [3] = biological target: T1, D3 DAR; experiment: DiscoverX D3 DAR β-arrestin recruitment assay; assay type: cell-based; set-up: host or cells: CHO
Description: (§1) A D3 DAR β-arrestin cell line from DiscoverX (Fremont, CA) was used as described in the protocol below (Table 2). A CHO cell line engineered to overexpress the D3 DAR fused with a small 42-amino acid fragment of β-galactosidase called ProLink™ and a fusion protein consisting of β-arrestin and a larger N-terminal deletion mutant of β-galactosidase was used (DiscoverX catalogue number 93-0579C2). When the D3 DAR is activated by dopamine, it stimulates binding of β-arrestin to ProLink-tagged D3 DARs, and the two complementary parts of β-galactosidase form a functional enzyme. When substrate (PathHunter® Detection reagent, DiscoverX 93-0001) is added, β-galactosidase hydrolyzes it and generates a chemiluminescent signal.

D2 DAR = D2 DAR (Homo sapiens, UniProt P14416); experiment: DiscoverX D2 DAR β-arrestin recruitment assay; assay type: cell-based; set-up: host or cells: CHO; conditions: EC80 concentration of DA (1 μM)
D2 DAR, sequence (P14416 whole entry, the tested form may be a part): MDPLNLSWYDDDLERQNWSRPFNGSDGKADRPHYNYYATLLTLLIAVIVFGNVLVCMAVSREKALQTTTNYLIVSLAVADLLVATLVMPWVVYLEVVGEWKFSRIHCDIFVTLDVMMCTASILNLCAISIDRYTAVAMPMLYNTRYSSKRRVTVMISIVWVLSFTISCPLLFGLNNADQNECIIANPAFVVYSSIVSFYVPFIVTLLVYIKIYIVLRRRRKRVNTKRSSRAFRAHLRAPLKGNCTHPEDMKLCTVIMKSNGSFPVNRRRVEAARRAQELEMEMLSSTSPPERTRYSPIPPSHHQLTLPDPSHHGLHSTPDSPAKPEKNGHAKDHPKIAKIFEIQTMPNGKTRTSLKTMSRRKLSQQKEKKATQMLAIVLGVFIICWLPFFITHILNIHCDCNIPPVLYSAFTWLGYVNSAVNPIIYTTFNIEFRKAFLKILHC
Description: For a secondary-screen and selectivity assays, DAR PathHunter®-arrestin GPCR cell lines from DiscoverX (Fremont, CA) were used. In the D2 DAR PathHunter®-arrestin GPCR cell line, the D2 DAR is overexpressed and fused with a small 42-amino acid fragment of β-galactosidase called ProLink™ on a CHO cellular background expressing a fusion protein of β-arrestin and a larger N-terminal deletion mutant of β-galactosidase (“enzyme acceptor”). When the D2 DAR is activated by dopamine, it stimulates binding of β-arrestin to the ProLink-tagged DAR and the two complementary parts of β-galactosidase form a functional enzyme. When substrate (PathHunter™ Detection reagent) is added, β-galactosidase hydrolyzes it and generates a chemiluminescent signal.

D3 DAR [4] = biological target: T1, D3 DAR; experiment: Functional curve-shift assays using the DiscoverX β-arrestin recruitment assay; assay type: cell-based; set-up: host or cells: CHO
Description: To further assess the mechanism of action of Cmp. […] 1 (FIGS. 4B and 4D). […] Average curves are shown (mean±SEM from at least 3 experiments each performed in triplicate). […] In contrast, increasing concentrations of Cmp.
1. FIG. 6A-C panels show concentration-response curves of dopamine in the absence or presence of increasing concentrations of compound. Cmp. […] 18 (FIG. 6A), Cmp. 5 (FIG. 6B), and Cmp. 17 (FIG. 6C), respectively. Average curves are shown (mean±SEM from at least 3 experiments, each performed in triplicate).
as §1

T1 sequence (P35462 whole entry): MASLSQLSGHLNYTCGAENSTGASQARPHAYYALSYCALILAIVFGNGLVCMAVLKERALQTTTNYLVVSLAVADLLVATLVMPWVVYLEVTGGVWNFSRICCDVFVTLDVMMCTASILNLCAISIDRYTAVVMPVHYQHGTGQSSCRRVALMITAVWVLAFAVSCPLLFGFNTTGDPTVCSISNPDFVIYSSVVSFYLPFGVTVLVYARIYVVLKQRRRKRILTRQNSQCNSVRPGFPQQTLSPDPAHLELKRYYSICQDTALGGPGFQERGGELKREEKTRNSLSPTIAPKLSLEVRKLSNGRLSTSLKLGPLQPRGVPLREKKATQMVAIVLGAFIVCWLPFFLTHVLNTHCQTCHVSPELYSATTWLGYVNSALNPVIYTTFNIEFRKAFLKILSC

Emax (D3 DAR [1]): > 100%
brain penetration [2]: brain penetrant
half-life ([2]; mouse, in vivo, ip): ~4 h
IC50 (D3 DAR [3]; EC80 concentration of DA (30 nM), read-out: D3 DAR IC50): < 10 µM
Emax (D3 DAR [3]; Imax=maximum inhibition, EC80 DA (30 nM)): 80 to 100%
D2 DAR Imax (D2 DAR): NA (“NA” indicates not active)
IC50 (D2 DAR): > 100 µM
IC50 (D3 DAR [4]; agonist dopamine, read-out: Functional IC50 for decreasing the Emax of dopamine): 1.7 µM
mode of antagonism in curve-shift assays (D3 DAR [4]; versus agonist (dopamine, pramipexole)): noncompetitive antagonism
Structure (SMILES): Cc1[nH]c(C)c(S(=O)(=O)Nc2ccc(C(F)(F)F)c(Cl)c2)c1C(=O)N1CCC(F)(F)C1 [Cmp. 17, N-(3-chloro-4-(trifluoromethyl)phenyl)-4-(3,3-difluoropyrrolidine-1-carbonyl)-2,5-dimethyl-1H-pyrrole-3-sulfonamide]
